In patent US20210238197A1, “NOVEL OXOQUINOLIZINE COMPOUNDS FOR THE TREATMENT AND PROPHYLAXIS OF BACTERIAL INFECTION” (Hoffmann-La Roche Inc., priority 2018, published 2021):
≈ marks a conversion by molar mass, not a printed value. Read-outs that look alike come from different tables or passages of the source.

How the values were obtained:
[1] = test system: S. aureus (ATCC29213); assay: 50% growth inhibitory concentration (IC50) determination assay, S. aureus; format: cell-based; conditions: Iso-Sensitest broth, growth by OD 600 nm over 16 h, <0.098 = detection limit
Method in brief: (§1)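 Compounds two-fold diluted from 50 to 0.097 μM (final) in Iso-Sensitest broth, inoculum ~5×10^5 CFU/mL. Incubation at 35±2 °C with OD600 read every 20 min over 16 h to track growth.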

[2] = test system: K. pneumoniae (ATCC10031); assay: 50% growth inhibitory concentration (IC50) determination assay, K. pneumoniae; format: cell-based; conditions: Iso-Sensitest broth, growth by OD 600 nm over 16 h, <0.098 = detection limit
Method in brief: as §1

[3] = test system: A. baumannii (ATCC17978); assay: 50% growth inhibitory concentration (IC50) determination assay, A. baumannii; format: cell-based; conditions: Iso-Sensitest broth, growth by OD 600 nm over 16 h, <0.098 = detection limit
Method in brief: as §1

[4] = test system: HepG2 cells; assay: Cytotoxicity assay (HepG2, CellTiter-Blue); format: cell-based
Method in brief: (§2)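 HepG2 cells exposed to compounds for 3 days. Viability read on day 3 by CellTiter-Blue fluorescence after 3 h at 37° C. CC50 obtained from a four-parameter logistic fit.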

[5] = test system: multiple species and strains; assay: microbe, parasite or virus in culture; set-up: MIC S9 / MIC S7 / MIC S11 / MIC S8 / MIC S10: unit not given beside the values
Method in brief: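 Broth microdilution per CLSI M07-A10 in CAMHB, CAMHB+3% lysed horse blood or HTM. Inoculum was set to OD600 ~0.1, then diluted 1:280 (Gram-positive) or 1:400 (Gram-negative), and plates were incubated 18-24 h at 35±2° C in ambient air. MIC (μg/mL) is the lowest concentration giving no visible growth.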

[6] = Lyophilisation solubility assay (LYSA); format: physicochemical; conditions: aqueous buffer, thermodynamic from solid; 0.05 M phosphate buffer, pH 6.5; <1.0 = detection limit
Method: The solubility of compounds of present invention was assessed by LYSA assay. Samples were prepared in duplicate from 10 mM DMSO stock solutions (20 μL) diluted in 30 μL pure DMSO. After evaporation of DMSO with a centrifugal vacuum evaporator, the residue was dissolved in 0.05 M phosphate buffer (150 μL, pH 6.5), which was stirred for one hour and shook for two hours. After one night, the solution was filtered using a microtiter filter plate. Then the filtrate and its 1/10 dilution were analyzed by HPLC-UV. In addition a four-point calibration curve was prepared from the 10 mM stock solutions and used for the solubility determination of the compounds.

[7] = Cytotoxicity assay (HepG2, CellTiter-Blue); format: cell-based; conditions: human; HepG2 cells, 3 days treatment; >100 = detection limit
Method in brief: as §2

[8] = Single dose PK study (SDPK) in female CD-1 mouse; format: in vivo; conditions: IV bolus, 1.0 mg/kg solution; for clearance: plasma, read-out: CL total
Method: The single dose PK in female CD-1 mouse was performed to assess compound's pharmacokinetic properties. One group of animals were dosed via bolus intravenous (IV) of the respective compound. Blood samples (approximately 30 μL) were collected via saphenous vein at 5 mins, 15 min, 30 min, 1 hr, 2 hr, 4 hr and 7 hr. For last time point (24 hr), samples were collected via cardiac puncture while the mouse was under anesthesia. Blood samples were placed into tubes containing EDTA-K2 anticoagulant (2 μL of 0.5M per tube) and centrifuged at 3000 rpm for 10 minutes at 4° C. within half an hour to separate plasma from the samples. Following centrifugation, plasma samples were stored in polypropylene tubes, quick frozen over dry ice and kept at −70±10° C. until LC/MS/MS analysis. The pharmacokinetic parameters were calculated using non-compartmental module of WinNonlin® Professional 6.4.

[9] = Staphylococcus aureus, ATCC29213
[10] = Klebsiella pneumoniae, ATCC10031
[11] = Acinetobacter baumannii, ATCC17978
[12] = Acinetobacter baumannii, ATCC19606, read-out: MIC S1, A. baumannii ATCC 19606
[13] = Acinetobacter baumannii, ATCC51432, read-out: MIC S2, A. baumannii ATCC 51432
[14] = Acinetobacter baumannii, ATCCBAA747, read-out: MIC S3, A. baumannii ATCC BAA-747
[15] = Escherichia coli, ATCC25922, read-out: MIC S11, E. coli ATCC 25922
[16] = Escherichia coli, ATCCBAA2340, read-out: MIC S10, E. coli ATCC BAA-2340
[17] = Klebsiella pneumoniae, ATCC10031, read-out: MIC S4, K. pneumoniae ATCC 10031
[18] = Klebsiella pneumoniae, ATCC700603, read-out: MIC S5, K. pneumoniae ATCC 700603
[19] = Klebsiella pneumoniae, ATCCBAA2146, read-out: MIC S6, K. pneumoniae ATCC BAA-2146
[20] = Pseudomonas aeruginosa, ATCC27853, read-out: MIC S7, P. aeruginosa ATCC 27853
[21] = Pseudomonas aeruginosa, ATCCBAA2113, read-out: MIC S8, P. aeruginosa ATCC BAA-2113

7-(5-cyano-4-(cis-(4R)-4 (dimethylamino)-3,3a,4,5,6,6a-hexahydro-1H-cyclopenta[c]pyrrol-2-yl)-6-fluoro-8-(methylamino)-9H-pyrido[2,3-b]indol-3-yl)-4-oxo-4H-quinolizine-3-carboxylic acid [Example 1.12]
IC50 [1]: < 98 nM
IC50 [2]: < 98 nM
IC50 [3]: < 98 nM
CC50 [4]: > 100000 nM
MIC S9 [5]: 0.541
MIC S1 ([5]; A. baumannii ATCC 19606): 1.082
MIC S2 ([5]; A. baumannii ATCC 51432): 0.541
MIC S3 ([5]; A. baumannii ATCC BAA-747): 0.541
MIC S11 ([5]; E. coli ATCC 25922): 0.203
MIC S10 ([5]; E. coli ATCC BAA-2340): 0.541
MIC S4 ([5]; K. pneumoniae ATCC 10031): 0.068
MIC S5 ([5]; K. pneumoniae ATCC 700603): 2.168
MIC S6 ([5]; K. pneumoniae ATCC BAA-2146): 4.335
MIC S7 ([5]; P. aeruginosa ATCC 27853): 1.082
MIC S8 ([5]; P. aeruginosa ATCC BAA-2113): 2.168

CNc1cc(F)c(F)c2c1[nH]c1ncc(-c3ccc4ccc(C(=O)O)c(=O)n4c3)c(N3CCC4CN(C)C[C@@H]43)c12 (stereo in doubt) [Example 1.03, 7-[5,6-difluoro-4-(cis-5-methyl-2,3,3a,4,6,6a-hexahydropyrrolo[2,3-c]pyrrol-1-yl)-8-(methylamino)-9H-pyrido[2,3-b]indol-3-yl]-4-oxo-quinolizine-3-carboxylic acid]
IC50 [1, 9]: < 98 nM
IC50 [2, 10]: < 98 nM
IC50 [3, 11]: < 98 nM
solubility thermodynamic [6]: 134 µg/mL (≈ 246 µM)
CC50 at 3 days [7]: 21900 nM
AUC total [8]: 374.7 ng·h/mL
clearance [8]: 39.1 mL/min/kg
MIC [5, 12]: 0.26 µg/mL (≈ 0.477 µM)
MIC [5, 13]: 0.26 µg/mL (≈ 0.477 µM)
MIC [5, 14]: 0.13 µg/mL (≈ 0.239 µM)
MIC S9 ([5]; E. coli ATCC 35218): 0.510
MIC [5, 15]: 0.193 µg/mL (≈ 0.354 µM)
MIC [5, 16]: 2.06 µg/mL (≈ 3.78 µM)
MIC [5, 17]: 0.03 µg/mL (≈ 0.0551 µM)
MIC [5, 18]: 4.12 µg/mL (≈ 7.57 µM)
MIC [5, 19]: 2.06 µg/mL (≈ 3.78 µM)
MIC [5, 20]: 1.03 µg/mL (≈ 1.89 µM)
MIC [5, 21]: 2.06 µg/mL (≈ 3.78 µM)

CNc1cc(F)c(F)c2c1[nH]c1ncc(-c3ccc4ccc(C(=O)O)c(=O)n4c3)c(N3CC[C@H]4CN(C)C[C@H]43)c12 [Example 1.04, 7-[4-[(3aS,6aS)-5-methyl-2,3,3a,4,6,6a-hexahydropyrrolo[2,3-c]pyrrol-1-yl]-5,6-difluoro-8-(methylamino)-9H-pyrido[2,3-b]indol-3-yl]-4-oxo-quinolizine-3-carboxylic acid]
IC50 [1, 9]: < 98 nM
IC50 [2, 10]: < 98 nM
IC50 [3, 11]: < 98 nM
solubility thermodynamic [6]: 460 µg/mL (≈ 845 µM)
CC50 at 3 days [7]: 15000 nM
AUC total [8]: 256 ng·h/mL
clearance [8]: 64.1 mL/min/kg
MIC [5, 12]: 0.128 µg/mL (≈ 0.235 µM)
MIC [5, 13]: 0.128 µg/mL (≈ 0.235 µM)
MIC [5, 14]: 0.128 µg/mL (≈ 0.235 µM)
MIC S9 ([5]; E. coli ATCC 35218): 0.128
MIC [5, 15]: 0.048 µg/mL (≈ 0.0881 µM)
MIC [5, 16]: 0.258 µg/mL (≈ 0.474 µM)
MIC [5, 17]: 0.032 µg/mL (≈ 0.0588 µM)
MIC [5, 18]: 1.03 µg/mL (≈ 1.89 µM)
MIC [5, 19]: 1.03 µg/mL (≈ 1.89 µM)
MIC [5, 20]: 0.514 µg/mL (≈ 0.944 µM)
MIC [5, 21]: 2.06 µg/mL (≈ 3.78 µM)

CNc1cc(F)c(C#N)c2c1[nH]c1ncc(-c3ccc4ccc(C(=O)O)c(=O)n4c3)c(N3CC[C@H]4CN(C)C[C@H]43)c12 [Example 1.14, 7-[4-[(3aS,6aS)-5-methyl-2,3,3a,4,6,6a-hexahydropyrrolo[2,3-c]pyrrol-1-yl]-5-cyano-6-fluoro-8-(methylamino)-9H-pyrido[2,3-b]indol-3-yl]-4-oxo-quinolizine-3-carboxylic acid]
IC50 [1, 9]: < 98 nM
IC50 [2, 10]: < 98 nM
IC50 [3, 11]: < 98 nM
CC50 at 3 days [7]: 15300 nM
AUC total [8]: 214 ng·h/mL
clearance [8]: 78.7 mL/min/kg
MIC [5, 12]: 0.108 µg/mL (≈ 0.196 µM)
MIC [5, 13]: 0.215 µg/mL (≈ 0.39 µM)
MIC [5, 14]: 0.215 µg/mL (≈ 0.39 µM)
MIC S9 ([5]; E. coli ATCC 35218): 0.108
MIC [5, 15]: 0.04 µg/mL (≈ 0.0725 µM)
MIC [5, 16]: 0.215 µg/mL (≈ 0.39 µM)
MIC [5, 17]: 0.027 µg/mL (≈ 0.049 µM)
MIC [5, 18]: 1.72 µg/mL (≈ 3.13 µM)
MIC [5, 19]: 0.86 µg/mL (≈ 1.56 µM)
MIC [5, 20]: 0.86 µg/mL (≈ 1.56 µM)
MIC [5, 21]: 1.72 µg/mL (≈ 3.13 µM)

CNc1cc(F)c(Cl)c2c1[nH]c1ncc(-c3ccc4ccc(C(=O)O)c(=O)n4c3)c(N3CC[C@]4(C[C@@H]4N)C3)c12 [Example 5.01D, 7-(4-((1S,3S)-1-amino-5-azaspiro[2.4]heptan-5-yl)-5-chloro-6-fluoro-8-(methylamino)-9H-pyrido[2,3-b]indol-3-yl)-4-oxo-4H-quinolizine-3-carboxylic acid]
IC50 [1, 9]: < 98 nM
IC50 [2, 10]: < 98 nM
IC50 [3, 11]: < 98 nM
CC50 at 3 days [7]: > 100000 nM
AUC total [8]: 180 ng·h/mL
clearance [8]: 93 mL/min/kg

CNc1cc(F)cc2c1[nH]c1nc(Oc3cnc(C)nc3)nc(N3C[C@H]4C[C@@H]3C[C@H]4N)c12 [GP-6, reference compound]
IC50 [1, 9]: < 98 nM
IC50 [2, 10]: < 98 nM
IC50 [3, 11]: < 98 nM
solubility thermodynamic [6]: < 1 µg/mL
CC50 at 3 days [7]: 5600 nM
AUC total [8]: 126.2 ng·h/mL
clearance [8]: 132 mL/min/kg
MIC [5, 12]: 0.339 µg/mL (≈ 0.78 µM)
MIC [5, 13]: 0.339 µg/mL (≈ 0.78 µM)
MIC [5, 14]: 0.169 µg/mL (≈ 0.389 µM)
MIC S9 ([5]; E. coli ATCC 35218): 0.169
MIC [5, 15]: 0.127 µg/mL (≈ 0.292 µM)
MIC [5, 16]: 1.36 µg/mL (≈ 3.13 µM)
MIC [5, 17]: < 0.021 µg/mL
MIC [5, 18]: 1.36 µg/mL (≈ 3.13 µM)
MIC [5, 19]: 2.71 µg/mL (≈ 6.25 µM)
MIC [5, 20]: 0.678 µg/mL (≈ 1.56 µM)
MIC [5, 21]: 1.36 µg/mL (≈ 3.13 µM)
